The supplement of paper PMC6045584

Assays:
Assay in all cases: area under dose-response curve of surviving fraction (unscaled, Aref=0) (surviving fraction x log10(nM)); higher = more resistant
Settings in all cases: exposure time: 5 days; dose range 0.5-1000 nM
[1] = compound: COc1ccc(C2=N[C@@H](c3ccc(Cl)cc3)[C@@H](c3ccc(Cl)cc3)N2C(=O)N2CCNC(=O)C2)c(OC(C)C)c1 [NUTLIN3]
Method in brief: (§1)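 Surviving fractions were fitted by 3-parameter logistic regression in the drc R package to give dose-response survival curves. They came from tumour cell lines treated for five days with eight inhibitor concentrations from 0.5 to 1000 nM and read by CellTiter-Glo luminescence against DMSO-only wells. The area under the curve is the unscaled activity area. It was calculated over log10 dose with Aref = 0.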

[2] = compound: CCN(CC)CCCCNc1ncc2cc(-c3cc(OC)cc(OC)c3)c(NC(=O)NC(C)(C)C)nc2n1
Method in brief: as §1

[3] = compound: C=CCNC1=C2C[C@@H](C)C[C@H](OC)[C@H](O)[C@@H](C)/C=C(\C)[C@H](OC(N)=O)[C@@H](OC)/C=C\C=C(/C)C(=O)NC(=CC1=O)C2=O [17-AAG]
Method in brief: as §1

[4] = compound: CN1CC[C@H](c2c(O)cc(O)c3c(=O)cc(-c4ccccc4Cl)oc23)[C@H](O)C1 [FLAVOPIRIDOL]
Method in brief: as §1

[5] = compound: CS(=O)(=O)CCNCc1ccc(-c2ccc3ncnc(Nc4ccc(OCc5cccc(F)c5)c(Cl)c4)c3c2)o1 [LAPATINIB]
Method in brief: as §1

[6] = compound: COc1cccc2c1C(=O)c1c(O)c3c(c(O)c1C2=O)C[C@@](O)(C(=O)CO)C[C@@H]3O[C@H]1C[C@H](N)[C@H](O)[C@H](C)O1 [DOXORUBICIN]
Method in brief: as §1

[7] = compound: CS(=O)(=O)c1ccc(C(=O)Nc2ccc(Cl)c(-c3ccccn3)c2)c(Cl)c1 [VISMODEGIB]
Method in brief: as §1

[8] = compound: Oc1ccc(/C=C/c2cc(O)cc(O)c2)cc1 [RESVERATROL]
Method in brief: as §1

[9] = compound: CC[C@@H](C(=O)[C@@H](C)[C@@H](O)[C@H](C)[C@@H]1O[C@@H]([C@@H](CC)C(=O)O)CC[C@@H]1C)[C@H]1O[C@]2(C=C[C@@H](O)[C@]3(CC[C@@](C)([C@H]4CC[C@](O)(CC)[C@H](C)O4)O3)O2)[C@H](C)C[C@@H]1C [SALINOMYCIN]
Method in brief: as §1

[10] = compound: Nc1ncn([C@H]2C[C@H](O)[C@@H](CO)O2)c(=O)n1 [DECITABINE]
Method in brief: as §1

[11] = compound: O=c1[nH]cc(F)c(=O)[nH]1 [FLUOROURACIL]
Method in brief: as §1

[12] = compound: COc1cc2c(cc1O)CC[C@@H]1[C@@H]2CC[C@]2(C)[C@@H](O)CC[C@@H]12 [2-METHOXYESTRADIOL]
Method in brief: as §1

[13] = compound: CN(C)CC[C@H](CSc1ccccc1)Nc1ccc(S(=O)(=O)NC(=O)c2ccc(N3CCN(Cc4ccccc4-c4ccc(Cl)cc4)CC3)cc2)cc1[N+](=O)[O-] [ABT-737]
Method in brief: as §1

| Test System | area under dose-response curve [1] | area under dose-response curve [2] | area under dose-response curve [3] | area under dose-response curve [4] | area under dose-response curve [5] | area under dose-response curve [6] | area under dose-response curve [7] | area under dose-response curve [8] | area under dose-response curve [9] | area under dose-response curve [10] | area under dose-response curve [11] | area under dose-response curve [12] | area under dose-response curve [13] |
| --- | --- | --- | --- | --- | --- | --- | --- | --- | --- | --- | --- | --- | --- |
| 22RV1 PROSTATE | 3.26 | 3.33 | 2.24 | 2.35 | 3.42 | 1.31 | 3.35 | 3.4 | 2.38 | 2.81 | 3.25 |  |  |
| 93VU HEADNECK | 3.56 |  | 2.32 | 2.13 | 2.8 | 2.39 |  | 3.7 | 2.79 | 3.07 | 3.04 | 3.08 |  |
| 143B BONE | 3.5 | 3.04 | 2.38 |  |  | 2.11 | 3.22 |  | 3.23 |  |  |  |  |
| ASKA SYNOVIAL |  |  | 1.27 | 2.27 | 3.82 | 0.989 | 3.21 | 3.84 | 3.15 | 3.08 |  | 3.04 |  |
| BT20 BREAST | 3.59 | 3.96 | 1.37 | 2.22 | 3.84 | 1.48 | 3.18 | 3.71 | 3.84 | 4.16 |  |  |  |
| BT549 BREAST | 3.68 |  | 1.1 | 2.02 | 3.45 | 1.41 | 2.93 | 3.52 | 2.75 | 2.69 | 2.98 | 3.02 |  |
| CADOES1 SOFT TISSUE | 2.81 | 3.03 | 2.76 | 1.8 |  | 1.99 | 3.17 | 3.21 | 2.37 | 2.23 | 3.05 | 3.23 | 2.63 |
| CHLA90 AUTONOMIC GANGLIA | 3.33 | 2.92 | 2.06 | 2.36 |  | 1.8 | 3.12 | 3.38 | 2.67 |  |  | 3.22 | 3.26 |
| CME SYNOVIAL | 4.32 | 3.88 | 1.9 | 2.35 | 4.25 | 1.52 | 3.77 | 4.4 | 2.88 | 2.82 |  |  | 4.41 |
| HCC78 LUNG | 3.02 | 3.12 | 1.44 | 1.62 | 2.99 | 1.2 | 3.52 |  | 2.33 | 2.49 | 3.24 | 2.57 |  |
| HCC202 BREAST | 3.88 | 4.1 | 1.59 |  |  | 2.27 | 3.06 |  | 2.48 |  |  |  |  |
| HCT15 LARGE INTESTINE | 3.38 | 3.28 | 1.85 | 2.01 |  | 2.07 | 3.26 | 3.39 | 2.74 | 3.19 | 2.73 | 2.65 | 3.46 |
| HT1080 SOFT TISSUE | 3.11 | 3.39 | 2.11 | 2.07 | 3.4 | 1.29 | 3.25 | 3.35 | 3.16 | 3.03 | 3.06 | 3.11 |  |
| HUO3N1 BONE | 3.41 | 3.05 | 2.3 | 2.49 | 3.26 | 2 |  | 3.49 | 2.41 |  | 3.28 | 3.2 |  |
| JURKAT HAEMATOPOIETIC AND LYMPHOID TISSUE | 3.49 | 3.44 | 2.65 | 2.12 | 3.21 | 1.12 |  | 3.34 | 2.52 | 1.56 |  | 2.65 | 3.08 |
| LNCAP PROSTATE | 2.82 | 2.96 | 1.33 | 1.78 | 3.12 | 1.09 |  | 3.05 | 1.9 | 2.75 |  | 2.89 | 3.07 |
| MDAMB157 BREAST | 3.22 | 2.73 | 1.61 | 2.21 | 3.27 | 1.21 | 3.26 | 3.39 | 2.66 | 2.4 |  | 3.1 | 3.26 |
| MDAMB453 BREAST | 3.54 | 3.28 | 1.3 | 2.12 | 3.21 | 2.24 | 3.16 | 3.63 | 3.04 |  | 3.14 | 3.02 | 3.59 |
| MDAMB468 BREAST | 3.39 | 3.27 | 2.41 | 2.15 |  | 2.09 | 3.19 | 3.56 | 3.08 | 2.63 | 2.83 | 3.5 | 3.62 |
| NCIH441 LUNG | 3.56 | 3.37 | 2.37 | 2.48 | 3.58 | 2.15 | 3.27 | 3.72 | 3.12 | 2.57 |  | 3.22 |  |
| NOS1 BONE | 3.66 | 3.02 | 1.6 | 2.06 | 3.54 | 2.15 |  | 3.77 | 2.83 | 3.34 |  |  | 3.75 |
| NY BONE | 3.28 | 2.65 | 1.6 | 2.12 | 3.43 | 1.85 | 3.28 | 3.32 | 2.53 | 2.91 |  | 2.83 | 3.42 |
| OS25HAL BONE | 3.29 | 3.27 | 2.56 | 2.25 | 3.47 | 1.87 | 3.29 | 3.4 | 2.57 | 3.53 |  | 3.02 | 3.39 |
